Laboratory results reported in article PMC4310556, “Radiosynthesis and in Vivo Evaluation of Two PET Radioligands for Imaging α-Synuclein” (Applied sciences (Basel, Switzerland), 2014).
Values joined by “and” are separate entries in the source; they are usually repeats but may differ in a detail not shown here. Identical values can stand only once. Blank lines part the entries; values can stand above or below the molecule they belong to.

Tests used:
[1] = Ex vivo biodistribution in rats; set-up: species or system Sprague-Dawley rats; details: for Blood-brain barrier penetration: ex vivo rat biodistribution; for Biodistribution, blood / Biodistribution, brain (total brain uptake) / Biodistribution, fat / Biodistribution, heart / Biodistribution, kidney / Biodistribution, liver / Biodistribution, lung / Biodistribution, muscle / Biodistribution, pancreas / Biodistribution, spleen / Biodistribution, bone: male Sprague-Dawley rats, i.v. tail vein, n = 4; for Distribution of radioactivity in brain regions: rat brain regions, Figure 2
Experimental: All animal experiments were conducted in compliance with the Guidelines for the Care and Use of Research Animals under protocols approved by Washington University's Animal Studies Committee. […] Group of rats (n = 4) were used for each time point. […] The whole brain was quickly removed and dissected into segments consisting of brain stem, thalamus, striatum, hippocampus, cortex and cerebellum. The remainder of the brain was also collected to determine total brain uptake. […] Tissues were weighed, and the percent injected dose (%ID)/gram for each tissue was calculated.

[2] = MicroPET brain imaging in cynomolgus macaque; assay type: in vivo
Experimental: Before each scan (n = 2), the animal was fasted for 12 h and then initially anesthetized with ketamine (10 mg/kg) and glycopyrrolate (0.13 mg/kg) intramuscularly. Upon arrival at the scanner, the monkey was intubated, and a percutaneous catheter placed for tracer injection. The head was positioned supine in the adjustable head holder with the brain in the center of the field of view. Anesthesia was maintained at 0.75%–2.0% isoflurane/oxygen and the core temperature maintained at 37 °C. A 10-min transmission scan was performed to confirm positioning; this was followed by a 45-min transmission scan for attenuation correction.

[3] = healthy cynomolgus macaque, microPET

Blood-brain barrier penetration [1]: crossed the blood-brain barrier (BBB)
Biodistribution, blood ([1]; 5 min post injection): 0.506 ± 0.040 %ID/gram
Biodistribution, brain (total brain uptake) ([1]; 5 min post injection): 0.953 ± 0.115 %ID/gram
Biodistribution, fat ([1]; 5 min post injection): 0.155 ± 0.023 %ID/gram
Biodistribution, heart ([1]; 5 min post injection): 0.758 ± 0.052 %ID/gram
Biodistribution, kidney ([1]; 5 min post injection): 1.362 ± 0.054 %ID/gram
Biodistribution, liver ([1]; 5 min post injection): 2.198 ± 0.111 %ID/gram
Biodistribution, lung ([1]; 5 min post injection): 1.149 ± 0.058 %ID/gram
Biodistribution, muscle ([1]; 5 min post injection): 0.271 ± 0.005 %ID/gram
Biodistribution, pancreas ([1]; 5 min post injection): 1.007 ± 0.262 %ID/gram
Biodistribution, spleen ([1]; 5 min post injection): 0.659 ± 0.049 %ID/gram
Biodistribution, blood ([1]; 30 min post injection): 0.369 ± 0.031 %ID/gram
Biodistribution, brain (total brain uptake) ([1]; 30 min post injection): 0.287 ± 0.046 %ID/gram
Biodistribution, fat ([1]; 30 min post injection): 0.241 ± 0.042 %ID/gram
Biodistribution, heart ([1]; 30 min post injection): 0.377 ± 0.046 %ID/gram
Biodistribution, kidney ([1]; 30 min post injection): 0.807 ± 0.086 %ID/gram
Biodistribution, liver ([1]; 30 min post injection): 1.349 ± 0.116 %ID/gram
Biodistribution, lung ([1]; 30 min post injection): 0.740 ± 0.038 %ID/gram
Biodistribution, muscle ([1]; 30 min post injection): 0.325 ± 0.030 %ID/gram
Biodistribution, pancreas ([1]; 30 min post injection): 0.506 ± 0.066 %ID/gram
Biodistribution, spleen ([1]; 30 min post injection): 0.400 ± 0.052 %ID/gram
Biodistribution, blood ([1]; 60 min post injection): 0.300 ± 0.015 %ID/gram
Biodistribution, fat ([1]; 60 min post injection): 0.293 ± 0.076 %ID/gram
Biodistribution, heart ([1]; 60 min post injection): 0.245 ± 0.010 %ID/gram
Biodistribution, kidney ([1]; 60 min post injection): 0.559 ± 0.053 %ID/gram
Biodistribution, liver ([1]; 60 min post injection): 1.116 ± 0.024 %ID/gram
Biodistribution, lung ([1]; 60 min post injection): 0.485 ± 0.036 %ID/gram
Biodistribution, muscle ([1]; 60 min post injection): 0.199 ± 0.016 %ID/gram
Biodistribution, pancreas ([1]; 60 min post injection): 0.522 ± 0.036 %ID/gram
Biodistribution, spleen ([1]; 60 min post injection): 0.386 ± 0.027 %ID/gram
Time of peak brain uptake post-injection (time-activity curve) ([2]; healthy adult male cynomolgus macaque, i.v., microPET): 3 min
Blood-brain barrier penetration [2, 3]: able to cross the BBB
SMILES: [11CH3]Oc1ccc2c(c1)Sc1cc([N+](=O)[O-])ccc1N2 [[^11C]2a]
Biodistribution, brain (total brain uptake) ([1]; 60 min post injection): 0.158 ± 0.014 %ID/gram and 0.158 ± 0.013 %ID/gram
Distribution of radioactivity in brain regions [1]: homogeneous distribution in the brain regions
Brain washout kinetics [2, 3]: fast washout kinetics from the brain regions
Distribution of radioactivity in the brain ([2]; healthy cynomolgus macaque, summed image 0-120 min): homogeneous distribution of radioactivity in the brain

Blood-brain barrier penetration [1]: crossed the blood-brain barrier (BBB)
Biodistribution, blood ([1]; 5 min post injection): 0.553 ± 0.047 %ID/gram
Biodistribution, bone ([1]; 5 min post injection): 0.340 ± 0.027 %ID/gram
Biodistribution, brain (total brain uptake) ([1]; 5 min post injection): 0.758 ± 0.013 %ID/gram
Biodistribution, fat ([1]; 5 min post injection): 0.255 ± 0.037 %ID/gram
Biodistribution, heart ([1]; 5 min post injection): 0.757 ± 0.033 %ID/gram
Biodistribution, kidney ([1]; 5 min post injection): 1.070 ± 0.058 %ID/gram
Biodistribution, liver ([1]; 5 min post injection): 1.626 ± 0.221 %ID/gram
Biodistribution, lung ([1]; 5 min post injection): 0.833 ± 0.053 %ID/gram
Biodistribution, muscle ([1]; 5 min post injection): 0.430 ± 0.031 %ID/gram
Biodistribution, pancreas ([1]; 5 min post injection): 1.004 ± 0.147 %ID/gram
Biodistribution, spleen ([1]; 5 min post injection): 0.672 ± 0.064 %ID/gram
Biodistribution, blood ([1]; 30 min post injection): 0.589 ± 0.016 %ID/gram
Biodistribution, bone ([1]; 30 min post injection): 0.309 ± 0.020 %ID/gram
Biodistribution, brain (total brain uptake) ([1]; 30 min post injection): 0.465 ± 0.018 %ID/gram
Biodistribution, fat ([1]; 30 min post injection): 0.425 ± 0.023 %ID/gram
Biodistribution, heart ([1]; 30 min post injection): 0.505 ± 0.015 %ID/gram
Biodistribution, kidney ([1]; 30 min post injection): 0.988 ± 0.090 %ID/gram
Biodistribution, liver ([1]; 30 min post injection): 0.847 ± 0.027 %ID/gram
Biodistribution, lung ([1]; 30 min post injection): 0.561 ± 0.021 %ID/gram
Biodistribution, muscle ([1]; 30 min post injection): 0.451 ± 0.018 %ID/gram
Biodistribution, pancreas ([1]; 30 min post injection): 0.546 ± 0.068 %ID/gram
Biodistribution, spleen ([1]; 30 min post injection): 0.509 ± 0.022 %ID/gram
Biodistribution, blood ([1]; 60 min post injection): 0.606 ± 0.035 %ID/gram
Biodistribution, bone ([1]; 60 min post injection): 0.407 ± 0.043 %ID/gram
Biodistribution, brain (total brain uptake) ([1]; 60 min post injection): 0.410 ± 0.030 %ID/gram
Biodistribution, fat ([1]; 60 min post injection): 0.371 ± 0.067 %ID/gram
Biodistribution, heart ([1]; 60 min post injection): 0.466 ± 0.040 %ID/gram
Biodistribution, kidney ([1]; 60 min post injection): 0.678 ± 0.032 %ID/gram
Biodistribution, liver ([1]; 60 min post injection): 0.561 ± 0.028 %ID/gram
Biodistribution, lung ([1]; 60 min post injection): 0.491 ± 0.030 %ID/gram
Biodistribution, muscle ([1]; 60 min post injection): 0.376 ± 0.019 %ID/gram
Biodistribution, pancreas ([1]; 60 min post injection): 0.409 ± 0.029 %ID/gram
Biodistribution, spleen ([1]; 60 min post injection): 0.446 ± 0.038 %ID/gram
Biodistribution, blood ([1]; 120 min post injection): 0.585 ± 0.046 %ID/gram
Biodistribution, bone ([1]; 120 min post injection): 0.644 ± 0.071 %ID/gram
Biodistribution, brain (total brain uptake) ([1]; 120 min post injection): 0.359 ± 0.016 %ID/gram
Biodistribution, fat ([1]; 120 min post injection): 0.293 ± 0.048 %ID/gram
Biodistribution, heart ([1]; 120 min post injection): 0.410 ± 0.030 %ID/gram
Biodistribution, kidney ([1]; 120 min post injection): 0.659 ± 0.027 %ID/gram
Biodistribution, liver ([1]; 120 min post injection): 0.467 ± 0.023 %ID/gram
Biodistribution, lung ([1]; 120 min post injection): 0.436 ± 0.018 %ID/gram
Biodistribution, muscle ([1]; 120 min post injection): 0.315 ± 0.015 %ID/gram
Biodistribution, pancreas ([1]; 120 min post injection): 0.330 ± 0.021 %ID/gram
Biodistribution, spleen ([1]; 120 min post injection): 0.398 ± 0.019 %ID/gram
In vivo defluorination (bone uptake) ([1]; rats, bone uptake up to 120 min): no defluorination was observed
SMILES: O=[N+]([O-])c1ccc2c(c1)Sc1cc(OCC[18F])ccc1N2 [[^18F]2b]
Distribution of radioactivity in brain regions [1]: homogeneous distribution in the brain regions
